The values that follow come from article PMC12802263 (mBio, 2025).

Molecules are shown by their SMILES.

Assay [1] concerns the target DncV (Vibrio cholerae, UniProt Q9KVG7). Put plainly: biochemical.
Assay [2] has as its target CapV (Vibrio cholerae, UniProt Q9KVG8). The note with it: 50 mM Na3PO4, pH 7.4, 300 mM NaCl, 10% glycerol, 37 °C.

DncV, sequence (Q9KVG7 whole entry, looked up): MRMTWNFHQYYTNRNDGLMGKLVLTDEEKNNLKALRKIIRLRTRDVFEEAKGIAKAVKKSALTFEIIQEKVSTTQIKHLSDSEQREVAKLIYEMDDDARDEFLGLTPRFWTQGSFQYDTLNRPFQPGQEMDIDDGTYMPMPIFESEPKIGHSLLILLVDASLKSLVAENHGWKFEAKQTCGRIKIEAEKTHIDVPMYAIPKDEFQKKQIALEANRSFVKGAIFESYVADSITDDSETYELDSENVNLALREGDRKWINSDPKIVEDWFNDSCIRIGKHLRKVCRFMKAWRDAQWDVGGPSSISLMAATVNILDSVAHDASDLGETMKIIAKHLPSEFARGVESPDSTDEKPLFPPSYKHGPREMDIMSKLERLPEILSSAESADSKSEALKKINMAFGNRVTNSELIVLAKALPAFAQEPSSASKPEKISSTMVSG
CapV, sequence (Q9KVG8 whole entry, looked up): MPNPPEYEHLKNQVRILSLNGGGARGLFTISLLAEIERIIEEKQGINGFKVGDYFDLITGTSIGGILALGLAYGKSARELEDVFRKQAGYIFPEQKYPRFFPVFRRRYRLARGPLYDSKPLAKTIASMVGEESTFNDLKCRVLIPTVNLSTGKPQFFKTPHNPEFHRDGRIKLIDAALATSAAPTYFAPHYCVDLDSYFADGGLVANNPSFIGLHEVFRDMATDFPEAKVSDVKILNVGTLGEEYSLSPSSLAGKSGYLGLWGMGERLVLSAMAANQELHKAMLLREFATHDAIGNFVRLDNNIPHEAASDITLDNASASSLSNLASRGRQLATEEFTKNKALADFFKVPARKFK

As to `Nc1nc2c(ncn2[C@@H]2O[C@H](COP(=O)(O)OP(=O)(O)OP(=O)(O)O)[C@@H](O)[C@H]2O)c(=O)[nH]1` [GTP], binding in assay [1] was characterised by a dissociation constant (Kd) of 2.63 µM.
For `CCCC(=O)Oc1ccc2nc3ccc(=O)cc-3oc2c1` [Resorufin butyrate], the “fluorogenic phospholipase assay (ex 550 / em 591 nm)” value in assay [2] is “phospholipase activity of the proteins CapV and CapV^S62A was detected using the fluorescent substrate Resorufin”.
`Nc1nc2c(c(=O)[nH]1)N[C@@H](CNc1ccc(C(=O)N[C@@H](CCC(=O)O)C(=O)O)cc1)CN2` [THF, tetrahydrofolate]: binding in assay [1] was put at a Kd of 3.59 µM.
